# Reference: patent US20100130725A1, “METHODS FOR CHARACTERIZING MOLECULES” (priority 2008, published 2010)
# Several values for one entry are separate records, joined by “and”; a condition that tells them apart may be missing. Equal entries are not always repeated. Where two headings read alike, the source gives them in different places. Ends that are not written are not given here.
# Experiments:
# Assay type in all cases: cell-based, human
# A549 cells [1] = assay: Epic RWG biosensor DMR assay, agonist mode (primary profile), A549 cells; conditions: for DMR signal triggered by the ligand (primary profile), second ligand panel: FIG. 8: 40 μM pinacidil, 250 μg/ml poly(I:C), 8 μM PMA, 16 μM forskolin
# Protocol: All cell lines were obtained from American Type Cell Culture (Manassas, Va.). The cell culture medium was as follows: Dulbecco's modified Eagle's medium (DMEM) supplemented with 10% fetal bovine serum (FBS), 4.5 g/liter glucose, 2 mM glutamine, and antibiotics for human epidermoid carcinoma A431 and human lung carcinoma A549.
# Cells were typically grown using ˜1 to 2×10^4 cells per well at passage 3 to 15 suspended in 50 μl of the corresponding culture medium in the biosensor microplate, and were cultured at 37° C. under air/5% CO2 for ˜1 day. Except for A431, which was subject to ˜20 hr starvation through continuous culture in the serum-free DMEM, the other cell types were directly assayed without starvation. The confluency for all cells at the time of assays was ˜95% to 100%.
# Epic® wavelength interrogation system (Corning Inc., Corning, N.Y.) was used for whole cell sensing. This system consists of a temperature-control unit, an optical detection unit, and an on-board liquid handling unit with robotics. The detection unit is centered on integrated fiber optics, and enables kinetic measures of cellular responses with a time interval of ˜15 sec.
# The RWG biosensor is capable of detecting minute changes in local index of refraction near the sensor surface. Since the local index of refraction within a cell is a function of density and its distribution of biomass (e.g., proteins, molecular complexes), the biosensor exploits its evanescent wave to non-invasively detect ligand-induced dynamic mass redistribution in native cells. The evanescent wave extends into the cells and exponentially decays over distance, leading to a characteristic sensing volume of ˜150 nm, implying that any optical response mediated through the receptor activation only represents an average over the portion of the cell that the evanescent wave is sampling. The aggregation of many cellular events downstream the receptor activation determines the kinetics and amplitudes of a ligand-induced DMR.
# (§1) For biosensor cellular assays, molecule solutions were made by diluting the stored concentrated solutions with the HBSS (1× Hanks balanced salt solution, plus 20 mM Hepes, pH 7.1), and transferred into a 384 well polypropylene molecule storage plate to prepare a molecule source plate. Both molecule and marker source plates were made separately when a two-step assay was performed. In parallel, the cells were washed twice with the HBSS and maintained in 30 μl of the HBSS to prepare a cell assay plate. Both the cell assay plate and the molecule and marker source plate(s) were then incubated in the hotel of the reader system. After ˜1 hr of incubation the baseline wavelengths of all biosensors in the cell assay microplate were recorded and normalized to zero. Afterwards, a 2 to 10 minute continuous recording was carried out to establish a baseline, and to ensure that the cells reached a steady state. Cellular responses were then triggered by pipetting 10 μl of the marker solutions into the cell assay plate using the on-board liquid handler.
# First, a panel of ligands targeting GPCRs, each at 10 μM concentration, was chosen, and examined their actions on the A549 cells using DMR measurements with the Epic® system. The ligand panel included the four P2Y agonists ADP, […], UTP and UDP, the adenosine receptor agonist adenosine, the calcium sensing receptor agonist spermine, the histamine receptor agonist histamine, the adrenergic receptor agonist epinephrine, the free fatty acid receptor agonist elaidic acid, the lipoxin receptor agonist lipoxin A4, the bradykinin receptor agonist bradykinin, the adrenodullin receptor agonist adrenodullin, the PAR1 agonist SFLLR-amide, the angiotensin receptor agonist angiotensin, the neuropeptide Y receptor agonist neuropeptide Y, and the PAR2 agonist SLIGKV-amide.
# Next, a second ligand panel was chosen, and examined their actions on the A549 cells using DMR measures with the Epic® system.
# quiescent A431 cells = assay: Epic DMR two-step assay, antagonist mode: modulation of marker-induced DMR signals in quiescent A431 cells
# Protocol: as §1
# Next, the target specificity and signaling pathway of EGF was probed using a second set of assays.
# A first panel of markers was contacted with quiescent A431 cells at concentrations close to each of the marker's EC80 or EC100, and DMR measurements were obtained with and EPIC® system. This panel of markers was selected from a library of markers identified in A431 cells using Epic® cellular assays. This panel included epidermal growth factor (EGF), epinephrine, nicotinic acid, and histamine. Each of these markers leads to a wide array of cell signaling. […] Each DMR signal represents an averaged response of 4 replicates.
# A DMR index was generated for four ligand molecules. Quiescent A431 and proliferating A549 cells were separately exposed to the ligand molecules for about 1 hr to generate their primary profiles, followed by stimulation with each marker at a fixed concentration (as mentioned in FIGS. 7 and 8) for another 1 hr or so to generate secondary profiles of the molecule against the panels of markers in both types of cells. Next, one or more specific DMR parameters were chosen as a readout for plotting the DMR index of the molecule. For the pinacidil DMR response in A549, the amplitude of the N-DMR (i.e., the amplitude 30 min after stimulation) was chosen. For the poly(I:C) DMR response in A549, the amplitude of the late DMR (i.e., the amplitude 50 min after stimulation) was chosen. For the PMA response in A549, the late DMR amplitude (i.e., the amplitude 50 min after stimulation) was chosen.
# A549 cells [2] = assay: Epic DMR two-step assay, antagonist mode: modulation of marker-induced DMR signals in A549 cells; conditions: molecule 10 μM
# Protocol: as §1
# A second panel of markers was contacted with A549 cells at concentrations close to each of the marker's EC80 or EC100, and DMR measurements were obtained with and EPIC® system. This panel included poly(I:C), SLIGKV-amide, pinacidil, PMA, histamine, and forskolin. Each of these markers also leads to a wide array of cell signaling. Using Epic® cellular assays in conjunction with chemical biology and cell biology approach similar to the EGFR DMR mentioned above, we have determined the pathway(s) and network interaction(s) that is accounted for each marker-induced DMR signal in A549 cells. The main observations are summarized below. Poly(I:C) is an agonist for endogenous Toll-like receptor(s) in A549, whose activation leads to IKK pathway and AKT pathway. SLIGKV-amide is an agonist for endogenous protease activated receptor subtype 2 (PAR2) in A549, whose activation leads to Gq-, Gi- and G12/13-mediated signaling. Pinacidil is an opener for endogenous ATP-sensitive potassium (KATP) ion channel in A549, whose activation leads to Rho- and JAK-mediated signaling. PMA is an activator for protein kinase C (PKC), whose activation leads to PKC pathway and degranulation. Histamine is a natural agonist for endogenous histamine receptors (dominantly H1R, and possibly H3R), whose activation leads to dual signaling, possibly through Gq and Gi mediated signaling in A549. Forskolin is an activator for adenylyl cyclases, whose activation leads to cAMP-PKA pathway in A549. […] Each DMR signal represents an averaged response of 4 replicates.
# A DMR index was generated for four ligand molecules. Quiescent A431 and proliferating A549 cells were separately exposed to the ligand molecules for about 1 hr to generate their primary profiles, followed by stimulation with each marker at a fixed concentration (as mentioned in FIGS. 7 and 8) for another 1 hr or so to generate secondary profiles of the molecule against the panels of markers in both types of cells. Next, one or more specific DMR parameters were chosen as a readout for plotting the DMR index of the molecule. For the pinacidil DMR response in A549, the amplitude of the N-DMR (i.e., the amplitude 30 min after stimulation) was chosen. For the poly(I:C) DMR response in A549, the amplitude of the late DMR (i.e., the amplitude 50 min after stimulation) was chosen. For the PMA response in A549, the late DMR amplitude (i.e., the amplitude 50 min after stimulation) was chosen. For the SLIGKV-amide DMR response in A549, the P-DMR amplitude (i.e., the amplitude 20 min after stimulation) was chosen. For the forskolin response in A549 cells, the P-DMR amplitude (i.e., the amplitude 50 min after stimulation) was chosen. For the histamine response in A549, both the early DMR amplitude (i.e., amplitude 10 min after stimulation) and the late response (i.e., the amplitude 30 min after stimulation) were chosen. […]
# [3] = quiescent A431, ligand 10 μM, about 1 hr pretreatment, 32 nM EGF
compound,measurement,setting,value
Nc1ncnc2c1ncn2[C@@H]1O[C@H](COP(=O)(O)OP(=O)(O)O)[C@@H](O)[C@H]1O [ADP],DMR signal triggered by the ligand (primary profile),"A549 cells [1]; A549 cells, ligand 10 μM",robust DMR signals
COc1cc2ncnc(Nc3cccc(Cl)c3)c2cc1OC [AG1478],modulation of the EGF-induced DMR signal,quiescent A431 cells; [3],almost completely blocked
Nc1ncnc2c1ncn2[C@@H]1O[C@H](COP(=O)(O)OP(=O)(O)OP(=O)(O)O)[C@@H](O)[C@H]1O [AT],DMR signal triggered by the ligand (primary profile),"A549 cells [1]; A549 cells, ligand 10 μM",robust DMR signals
CNCCNS(=O)(=O)c1cccc2cnccc12 [H8],modulation of the epinephrine response,"quiescent A431 cells; A431, molecule 10 μM",less effective at attenuating
same,modulation of the histamine response,"quiescent A431 cells; A431, molecule 10 μM",less effective at attenuating
O=S(=O)(c1cccc2cnccc12)N1CCCNCC1 [HA1077],modulation of the PMA response,A549 cells [2],significantly potentiated
same,modulation of the histamine response,A549 cells [2],significantly potentiated
same,modulation of the pinacidil response,A549 cells [2],almost completely attenuated
same,modulation of PMA-induced DMR response (late DMR amplitude),"A549 cells [2]; 8 μM PMA, amplitude 50 min after stimulation",+36%
same,modulation of SLIGKV-amide-induced DMR response (P-DMR amplitude),"A549 cells [2]; 8 μM SLIGKV-amide, amplitude 20 min after stimulation",+22%
same,modulation of histamine-induced DMR response (early P-DMR),"A549 cells [2]; 10 μM histamine, amplitude 10 min after stimulation",+26%
same,modulation of histamine-induced DMR response (late P-DMR),"A549 cells [2]; 10 μM histamine, amplitude 30 min after stimulation",+55%
same,modulation of forskolin-induced DMR response (P-DMR amplitude),"A549 cells [2]; 16 μM forskolin, amplitude 50 min after stimulation",+18%
same,modulation of poly(I:C)-induced DMR response (late DMR amplitude),"A549 cells [2]; 250 μg/ml poly(I:C), amplitude 50 min after stimulation",+18%
same,modulation of pinacidil-induced DMR response (N-DMR amplitude),"A549 cells [2]; ~1 hr pretreatment, 40 μM pinacidil, amplitude 30 min after stimulation",−86% and −95%
"CCCCCCCCCCCCCC(=O)O[C@@H]1[C@@H](C)[C@@]2(O)[C@@H](C=C(CO)C[C@]3(O)C(=O)C(C)=C[C@@H]23)[C@@H]2C(C)(C)[C@]12OC(C)=O [PMA, Phorbol 12-myristate 13-acetate]","DMR signal triggered by the ligand (primary profile), second ligand panel",A549 cells [1]; A549 cells,robust DMR signals
N#CC(=C(/N)Sc1ccccc1N)/C(C#N)=C(\N)Sc1ccccc1N [U0126],modulation of the EGF-induced DMR signal,quiescent A431 cells,significantly and selectively attenuated the N-DMR and the RP-DMR signals
O=c1ccn([C@@H]2O[C@H](COP(=O)(O)OP(=O)(O)O)[C@@H](O)[C@H]2O)c(=O)[nH]1 [UDP],DMR signal triggered by the ligand (primary profile),"A549 cells [1]; A549 cells, ligand 10 μM",robust DMR signals
O=c1ccn([C@@H]2O[C@H](COP(=O)(O)OP(=O)(O)OP(=O)(O)O)[C@@H](O)[C@H]2O)c(=O)[nH]1 [UTP],DMR signal triggered by the ligand (primary profile),"A549 cells [1]; A549 cells, ligand 10 μM",robust DMR signals
Nc1ncnc2c1ncn2[C@@H]1O[C@H](CO)[C@@H](O)[C@H]1O [adenosine],DMR signal triggered by the ligand (primary profile),"A549 cells [1]; A549 cells, ligand 10 μM",robust DMR signals
CCCCCCCC/C=C/CCCCCCCC(=O)O [elaidic acid],DMR signal triggered by the ligand (primary profile),"A549 cells [1]; A549 cells, ligand 10 μM",robust DMR signals
CNC[C@H](O)c1ccc(O)c(O)c1 [epinephrine],DMR signal triggered by the ligand (primary profile),A549 cells [1],robust DMR signals
NCCc1c[nH]cn1 [histamine],DMR signal triggered by the ligand (primary profile),"A549 cells [1]; A549 cells, ligand 10 μM",robust DMR signals
CCCCC[C@H](O)/C=C/C=C\C=C\C=C\[C@@H](O)[C@@H](O)CCCC(=O)O [lipoxin A4],DMR signal triggered by the ligand (primary profile),"A549 cells [1]; A549 cells, ligand 10 μM",robust DMR signals
CC(N/C(=N\C#N)Nc1ccncc1)C(C)(C)C (stereo not shown) [pinacidil],"DMR signal triggered by the ligand (primary profile), second ligand panel",A549 cells [1]; A549 cells,robust DMR signals
CC(=O)c1c(O)c(C)c(O)c(Cc2c(O)c3c(c(C(=O)/C=C/c4ccccc4)c2O)OC(C)(C)C=C3)c1O [rottlerin],modulation of the EGF-induced DMR signal,quiescent A431 cells; [3],"specifically caused the truncation of the early P-DMR event, as well as part of the early N-DMR event"
NCCCNCCCCNCCCN [spermine],DMR signal triggered by the ligand (primary profile),"A549 cells [1]; A549 cells, ligand 10 μM",robust DMR signals
BML-265,modulation of the EGF-induced DMR signal,quiescent A431 cells; [3],almost completely blocked
SFLLR-amide,DMR signal triggered by the ligand (primary profile),"A549 cells [1]; A549 cells, ligand 10 μM",robust DMR signals
SLIGKV-NH2,DMR signal triggered by the ligand (primary profile),"A549 cells [1]; A549 cells, ligand 10 μM",robust DMR signals
"adrenodullin: adrenodullin receptor agonist (YRQSMNNFQGLRSFGCRFGTCTVQKLAHQIYQFTDKDKDNVAPRSKISPQGY; ends and bridges not checked; cysteine pairing not given here; UniProt P35318 95-146, looked up)",DMR signal triggered by the ligand (primary profile),"A549 cells [1]; A549 cells, ligand 10 μM",robust DMR signals
angiotensin,DMR signal triggered by the ligand (primary profile),"A549 cells [1]; A549 cells, ligand 10 μM",robust DMR signals
neuropeptide Y,DMR signal triggered by the ligand (primary profile),"A549 cells [1]; A549 cells, ligand 10 μM",robust DMR signals
poly(I:C),"DMR signal triggered by the ligand (primary profile), second ligand panel",A549 cells [1]; A549 cells,robust DMR signals
